According to ChEMBL document CHEMBL1140846, “Convenient QSAR model for predicting the complexation of structurally diverse compounds with beta-cyclodextrins” (Bioorg Med Chem, 2009):

Test: Binding affinity to beta cyclodextrin

| Structure (SMILES) | log Ks |
| --- | --- |
| ClCc1ccccc1 [(CHLOROMETHYL)BENZENE] | 2.45 |
| CCc1ccc(O)cc1 | 2.69 |
| CCCCn1ccnc1 | 2.19 |
| c1ccc2c(c1)oc1ccccc12 [DIBENZOFURAN] | 2.97 |
| COc1cc(NS(=O)(=O)c2ccc(N)cc2)nc(C)n1 [SULFAMETOMIDINE] | 2.33 |
| Oc1ccc(I)cc1 | 2.98 |
| CCCCCCCO [1-HEPTANOL] | 2.85 |
| CCCCC(C)O (centres undefined) [2-HEXANOL] | 1.98 |
| Cc1ccc(O)cc1 [p-CRESOL] | 2.4 |
| C1CCOC1 [TETRAHYDROFURAN] | 1.47 |
| C[C@H]1C[C@H]2[C@@H]3CCC4=CC(=O)C=C[C@]4(C)[C@@]3(F)[C@@H](O)C[C@]2(C)[C@@]1(O)C(=O)CO [BETAMETHASONE] | 3.73 |
| CCOc1ccc(O)cc1 [1-hydroxy-4-ethoxybenzene] | 2.33 |
| CCCCc1ccc(OC(C)=O)cc1 | 3.62 |
| c1ccc2c(c1)[nH]c1ccccc12 [CARBAZOLE] | 2.44 |
| c1ccc(Cn2ccnc2)cc1 [BENZYLIMIDAZOLE] | 2.61 |
| CC(C)Oc1ccc(O)cc1 | 2.86 |
| COc1cc(NS(=O)(=O)c2ccc(N)cc2)nc(OC)n1 [SULFADIMETHOXINE] | 2.26 |
| CC(C(=O)O)c1cccc(C(=O)c2ccccc2)c1 (centres undefined) [KETOPROFEN] | 2.85 |
| CCOc1cccc(O)c1 [1-hydroxy-3-ethoxybenzene] | 2.35 |
| OCc1ccccc1 [BENZYL ALCOHOL] | 1.71 |
| CCCc1cccc(O)c1 | 3.28 |
| CCCCCCC(C)O (centres undefined) | 3.13 |
| C[C@]12CCC(=O)C=C1CC[C@@H]1[C@@H]2C(=O)C[C@@]2(C)[C@H]1CC[C@]2(O)C(=O)CO [CORTISONE] | 3.35 |
| CCOC(=O)c1ccc(N)cc1 [BENZOCAINE] | 2.69 |

| Structure (SMILES) | log Ks |
| --- | --- |
| CC#N [ACETONITRILE] | -0.27 |
| CN1C(=O)CN=C(c2ccccc2F)c2cc(Cl)ccc21 [FLUDIAZEPAM] | 2.33 |
| CCOc1ccc(OC(C)=O)cc1 | 2.54 |
| CC(C)C(C)O (centres undefined) | 1.92 |
| C[C@H](CCC(=O)O)[C@H]1CC[C@H]2[C@@H]3[C@H](O)C[C@@H]4C[C@H](O)CC[C@]4(C)[C@H]3C[C@H](O)[C@]12C [CHOLIC ACID] | 3.5 |
| CCCc1ccc(OC(C)=O)cc1 | 3.15 |
| CCCCCc1ccc(O)cc1 | 4.19 |
| CC(=O)Oc1cccc(I)c1 | 3.07 |
| CCCc1ccc(O)cc1 | 3.55 |
| O=C(O)c1ccccc1Nc1cccc(C(F)(F)F)c1 [FLUFENAMIC ACID] | 3.1 |
| OCCCCCO [1,5-PENTANEDIOL] | 1.22 |
| CC(=O)Oc1ccc([N+](=O)[O-])cc1 [4-NITROPHENYL ACETATE] | 2.13 |
| CC(=O)Oc1ccc(F)cc1 | 2.11 |
| O=[N+]([O-])c1ccc(Cl)cc1 | 2.15 |
| Ic1ccc(I)cc1 | 3.17 |
| OC1CCC1 [CYCLOBUTANOL] | 1.18 |
| Oc1cccc(Cl)c1 | 2.28 |
| CC(=O)c1cccc(O)c1 | 2.06 |
| O=C1CN=C(c2ccccc2)c2cc([N+](=O)[O-])ccc2N1 [NITRAZEPAM] | 1.97 |
| CCC1(c2ccccc2)C(=O)NC(=O)N(C)C1=O (centres undefined) [MEPHOBARBITAL] | 3.16 |
| CC(C)=O [ACETONE] | 0.42 |
| OCCCCCCO [1,6-HEXANEDIOL] | 1.69 |
| CCC(=O)c1ccc(O)cc1 [PAROXYPROPIONE] | 2.63 |
| CC(C)c1cccc(O)c1 | 3.44 |

| Structure (SMILES) | log Ks |
| --- | --- |
| CCC1(c2ccccc2)C(=O)NC(=O)NC1=O [PHENOBARBITAL] | 3.22 |
| O=Cc1ccc(O)cc1 [4-HYDROXYBENZALDEHYDE] | 1.75 |
| CC(=O)OCC(=O)[C@@]1(O)CC[C@H]2[C@@H]3CCC4=CC(=O)CC[C@]4(C)[C@H]3C(=O)C[C@@]21C [CORTISONE ACETATE] | 3.62 |
| c1ccc2c(c1)Cc1ccccc1O2 [XANTHENE] | 2.71 |
| CN1CCN=C(c2ccccc2)c2cc(Cl)ccc21 [MEDAZEPAM] | 2.4 |
| Oc1ccc(Cl)cc1 [PARACHLOROPHENOL] | 2.61 |
| CCCCNC(=O)NS(=O)(=O)c1ccc(N)cc1 [CARBUTAMIDE] | 2.29 |
| N#Cc1ccccc1 [BENZONITRILE] | 2.23 |
| OC1CCCCCC1 [CYCLOHEPTANOL] | 3.23 |
| c1ccc2c(c1)Nc1ccccc1O2 [PHENOXAZINE] | 2.69 |
| CCc1cccc(O)c1 | 2.6 |
| CCC(O)CC [3-PENTANOL] | 1.35 |
| Oc1ccc(O)cc1 [HYDROQUINONE] | 2.05 |
| CN1C(=O)NC(=O)C(C)(C2=CCCCC2)C1=O (centres undefined) [HEXOBARBITAL] | 3.08 |
| CC(C)Cc1cccc(O)c1 | 4.21 |
| C(=C\c1ccccc1)/CN1CCN(C(c2ccccc2)c2ccccc2)CC1 [CINNARIZINE] | 3.64 |
| C[C@]12C[C@H](O)[C@H]3[C@@H](CCC4=CC(=O)CC[C@@]43C)[C@@H]1CC[C@@H]2C(=O)CO [CORTICOSTERONE] | 3.85 |
| CCCC(C)(C)O | 1.99 |
| Cc1ccnc(NS(=O)(=O)c2ccc(N)cc2)n1 [SULFAMERAZINE] | 1.97 |
| ClC(Cl)(Cl)Cl [CARBON TETRACHLORIDE] | 2.2 |
| O=[N+]([O-])c1ccccc1 [NITROBENZENE] | 2.04 |
| CC(C)(C)c1cccc(O)c1 | 4.41 |
| Cc1cccc(N(C)C(=S)Oc2ccc3ccccc3c2)c1 [TOLNAFTATE] | 3.83 |
| Cc1cc(NS(=O)(=O)c2ccc(N)cc2)nc(C)n1 [SULFISOMIDINE] | 2.1 |

| Structure (SMILES) | log Ks |
| --- | --- |
| CC(C)(C)CO | 2.71 |
| CC(=O)Nc1ccccc1 [ACETANILIDE] | 2.2 |
| OC1CCCC1 [CYCLOPENTANOL] | 2.08 |
| CCCCOC(=O)c1ccc(N)cc1 [BUTAMBEN] | 3.19 |
| Brc1ccccc1 [BROMOBENZENE] | 2.5 |
| COCCO [2-METHOXYETHANOL] | 0.22 |
| CO [METHYL ALCOHOL] | -0.49 |
| Nc1ccc(S(=O)(=O)Nc2ccnn2-c2ccccc2)cc1 [SULFAPHENAZOLE] | 2.35 |
| CCC(C)CO (centres undefined) | 2.08 |
| NC(=O)CCC/N=C(\c1ccc(Cl)cc1)c1cc(F)ccc1O [PROGABIDE] | 2.53 |
| CC(C)CO [ISOBUTANOL] | 1.62 |
| Cc1noc(NS(=O)(=O)c2ccc(N)cc2)c1C [SULFISOXAZOLE] | 2.32 |
| Cc1cccc(/C=C/C(=O)O)c1 | 2.93 |
| c1ccc2nc3ccccc3nc2c1 [PHENAZINE] | 2.41 |
| O=C(O)c1ccccc1 [BENZOIC ACID] | 2.12 |
| CCc1ccc(OC(C)=O)cc1 | 2.83 |
| CN1C(=O)CN=C(c2ccccc2)c2cc([N+](=O)[O-])ccc21 [NIMETAZEPAM] | 1.73 |
| CCC(C)(C)O [AMYLENE HYDRATE] | 1.91 |
| CC(=O)Oc1cccc(CC(C)C)c1 | 3.83 |
| CCOC(=O)c1ccc(O)cc1 [ETHYLPARABEN] | 3.01 |
| Oc1cccc(Br)c1 | 2.51 |
| Oc1ccccc1 [PHENOL] | 1.98 |
